Experimental findings from patent US8173640B1, “Compositions and methods for treating, reducing, ameliorating, or preventing infections” (Bausch & Lomb Incorporated, priority 2007, dated 2012) are described below.

The test has as its system S. aureus (ATCC 29213). Description: MICs of compound having Formula IV and ciprofloxacin alone and in combination. The note with it: against S. aureus; alone. Format: cell-based. The method, then: Compositions having various combinations of concentrations of compound having Formula IV and cirprofloxacin were tested systematically against S. aureus, P. aeruginosa, and E. coli.

As to `O=C(O)c1cn(C2CC2)c2cc(N3CCNCC3)c(F)cc2c1=O` [Ciprofloxacin, ciprofloxacin], the effectiveness in words result is on record as “effective”.
